Measured values published in ChEMBL document CHEMBL3085631, “GluK1 antagonists from 6-(tetrazolyl)phenyl decahydroisoquinoline derivatives: in vitro profile and in vivo analgesic efficacy” (Bioorg Med Chem Lett, 2013).

Key:
[1] = biological target: Glutamate receptor ionotropic, kainate 1 (Homo sapiens, UniProt P39086); test: Displacement of [3H]ATPA from human Gluk1 receptor
Rattus norvegicus [2] = test: Analgesic activity in rat assessed as reversal of carrageenan-induced thermal hyperalgesia at 10 mg/kg, sc after 30 to 40 mins relative to vehicle-treated control; assay type: functional; conditions: route subcutaneous
Glutamate receptor 2 = Glutamate receptor 2 (Homo sapiens, UniProt P42262); test: Displacement of [3H]AMPA from homomeric recombinant GluA2 receptor (unknown origin)
Glutamate receptor 2, sequence (P42262 whole entry): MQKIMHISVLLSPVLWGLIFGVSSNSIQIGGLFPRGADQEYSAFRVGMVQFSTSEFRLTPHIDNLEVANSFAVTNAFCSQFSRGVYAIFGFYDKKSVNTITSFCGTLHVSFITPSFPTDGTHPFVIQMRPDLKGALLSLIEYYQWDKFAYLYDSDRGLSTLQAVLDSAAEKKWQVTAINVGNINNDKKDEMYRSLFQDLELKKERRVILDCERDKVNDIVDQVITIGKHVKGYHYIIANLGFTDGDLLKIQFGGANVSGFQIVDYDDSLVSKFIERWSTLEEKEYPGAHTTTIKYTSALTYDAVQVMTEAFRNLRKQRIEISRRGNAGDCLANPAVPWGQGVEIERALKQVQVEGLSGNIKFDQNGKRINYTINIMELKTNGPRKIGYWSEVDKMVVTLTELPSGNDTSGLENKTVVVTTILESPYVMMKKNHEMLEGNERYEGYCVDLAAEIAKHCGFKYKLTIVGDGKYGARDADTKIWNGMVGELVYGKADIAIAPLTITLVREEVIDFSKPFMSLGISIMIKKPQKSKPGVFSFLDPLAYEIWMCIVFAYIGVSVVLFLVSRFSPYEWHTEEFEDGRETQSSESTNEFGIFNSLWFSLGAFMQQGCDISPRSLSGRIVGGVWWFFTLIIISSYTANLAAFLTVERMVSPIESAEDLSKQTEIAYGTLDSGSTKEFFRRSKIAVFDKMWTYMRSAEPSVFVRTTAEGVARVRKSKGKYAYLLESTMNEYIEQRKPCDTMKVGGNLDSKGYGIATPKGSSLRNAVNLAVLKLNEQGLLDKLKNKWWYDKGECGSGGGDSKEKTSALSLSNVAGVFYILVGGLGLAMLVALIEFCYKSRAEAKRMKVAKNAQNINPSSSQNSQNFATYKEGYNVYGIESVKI

Rattus norvegicus [3] = test: Analgesic activity in po dosed Sprague-Dawley rat assessed as reversal of formalin-induced late-phase paw-licking behavior after 1 hr; assay type: functional; conditions: read-out: MED
[4] = Plasma concentration in rat at 5 mg/kg, po after 1 hr; assay type: ADME, organism-based; set-up: dose 5 mg/kg, route oral
Rattus norvegicus [5] = test: Toxicity in Sprague-Dawley rat assessed as sedation at 5 to 10 mg/kg, po by rotarod test; assay type: organism-based; set-up: dose 5-10 mg/kg, route oral; conditions: in vivo
Rattus norvegicus [6] = test: Toxicity in Sprague-Dawley rat assessed as ataxia at 5 to 10 mg/kg, po by rotarod test; assay type: organism-based; set-up: dose 5-10 mg/kg, route oral; conditions: in vivo
[7] = Oral bioavailability in rat at 5 mg/kg; assay type: ADME, organism-based; conditions: in vivo
Rattus norvegicus [8] = test: Analgesic activity in po dosed rat assessed as reversal of carrageenan-induced thermal hyperalgesia after 60 mins; assay type: functional; conditions: 1 h, read-out: MED

Glutamate receptor ionotropic, kainate 1, sequence (P39086 whole entry): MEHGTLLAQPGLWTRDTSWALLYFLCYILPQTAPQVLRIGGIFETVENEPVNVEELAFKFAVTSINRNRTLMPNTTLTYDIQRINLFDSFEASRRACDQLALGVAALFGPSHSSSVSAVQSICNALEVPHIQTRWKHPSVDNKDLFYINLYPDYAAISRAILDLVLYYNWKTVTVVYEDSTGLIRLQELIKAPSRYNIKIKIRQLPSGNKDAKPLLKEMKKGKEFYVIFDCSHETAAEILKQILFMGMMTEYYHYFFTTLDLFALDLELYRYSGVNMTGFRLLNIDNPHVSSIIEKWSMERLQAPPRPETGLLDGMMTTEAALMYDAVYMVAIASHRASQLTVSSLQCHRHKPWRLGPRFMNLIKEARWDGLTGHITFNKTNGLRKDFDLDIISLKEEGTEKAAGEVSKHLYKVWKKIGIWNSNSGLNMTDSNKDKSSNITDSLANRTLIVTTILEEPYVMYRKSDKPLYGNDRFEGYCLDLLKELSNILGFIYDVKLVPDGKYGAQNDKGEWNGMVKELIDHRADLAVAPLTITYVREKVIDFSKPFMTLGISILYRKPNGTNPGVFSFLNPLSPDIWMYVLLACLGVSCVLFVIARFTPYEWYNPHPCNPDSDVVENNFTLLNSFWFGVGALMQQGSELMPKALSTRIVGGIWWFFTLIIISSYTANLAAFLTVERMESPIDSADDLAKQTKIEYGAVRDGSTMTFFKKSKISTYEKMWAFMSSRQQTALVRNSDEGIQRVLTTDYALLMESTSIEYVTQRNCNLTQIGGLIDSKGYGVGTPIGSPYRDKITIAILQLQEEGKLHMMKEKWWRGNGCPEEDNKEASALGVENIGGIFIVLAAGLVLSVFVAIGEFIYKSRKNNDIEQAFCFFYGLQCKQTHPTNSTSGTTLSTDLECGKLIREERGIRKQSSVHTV

| Structure (SMILES) | Ki [1] | Activity (Rattus norvegicus [2]) | Ki (Glutamate receptor 2) | other results |
| --- | --- | --- | --- | --- |
| O=C(O)[C@@H]1C[C@H]2C[C@@H](Oc3ccccc3-c3nn[nH]n3)CC[C@H]2CN1 | 1200 nM | 152.6% | 16000 nM |  |
| Cl.O=C(O)[C@@H]1C[C@H]2C[C@@H](Cc3ccccc3-c3nnn[nH]3)CC[C@H]2CN1 | 3000 nM | 73% | 13000 nM |  |
| Cl.O=C(O)[C@@H]1C[C@H]2C[C@@H](Oc3cc(-c4ccccc4)ccc3-c3nnn[nH]3)CC[C@H]2CN1 | 100 nM | 100.8% | 2300 nM |  |
| Cl.O=C(O)c1ccc(C[C@H]2CC[C@H]3CN[C@H](C(=O)O)C[C@H]3C2)cc1 |  | 67.8% |  |  |
| O=C(O)[C@@H]1C[C@H]2C[C@@H](Oc3cc(-c4cccs4)ccc3-c3nnn[nH]3)CC[C@H]2CN1 | 90 nM |  | 4400 nM |  |
| COc1cccc(N[C@H]2CC[C@H]3CN[C@H](C(=O)O)C[C@H]3C2)c1-c1nnn[nH]1 | 12800 nM |  | 181000 nM |  |
| O=C(O)[C@@H]1C[C@H]2C[C@@H](Nc3cc(-c4ccccc4)ccc3-c3nnn[nH]3)CC[C@H]2CN1 | 1100 nM |  | 3500 nM |  |
| Cl.O=C(O)[C@@H]1C[C@H]2C[C@@H](Oc3cc(OCc4ccccc4)ccc3-c3nnn[nH]3)CC[C@H]2CN1 | 160 nM | 81.7% | 17000 nM |  |
| O=C(O)[C@@H]1C[C@H]2C[C@@H](Nc3cccc(Cl)c3-c3nnn[nH]3)CC[C@H]2CN1 |  |  | 6400 nM |  |
| Cl.O=C(O)[C@@H]1C[C@H]2C[C@@H](Oc3cc(Cc4ccccc4)ccc3-c3nnn[nH]3)CC[C@H]2CN1 | 160 nM | 89.8% | 9600 nM |  |
| O=C(O)[C@@H]1C[C@H]2C[C@@H](Oc3ccc(F)cc3-c3nnn[nH]3)CC[C@H]2CN1 | 900 nM |  | 2700 nM |  |
| Cc1ccc(-c2nnn[nH]2)c(O[C@H]2CC[C@H]3CN[C@H](C(=O)O)C[C@H]3C2)c1 | 1100 nM |  | 5200 nM |  |
| O=C(O)[C@@H]1C[C@H]2C[C@@H](Nc3ccc(F)cc3-c3nnn[nH]3)CC[C@H]2CN1 |  |  | 12000 nM |  |
| O=C(O)[C@@H]1C[C@H]2C[C@@H](Oc3ccc(Cl)cc3-c3nnn[nH]3)CC[C@H]2CN1 | 400 nM |  | 400 nM |  |
| CC(C)Oc1ccc(-c2nnn[nH]2)c(O[C@H]2CC[C@H]3CN[C@H](C(=O)O)C[C@H]3C2)c1.Cl | 900 nM | 76.9% | 12000 nM |  |
| Cc1ccc(-c2nnn[nH]2)c(N[C@H]2CC[C@H]3CN[C@H](C(=O)O)C[C@H]3C2)c1 | 2900 nM |  | 6200 nM |  |

| Structure (SMILES) | Ki [1] | Activity (Rattus norvegicus [2]) | Ki (Glutamate receptor 2) | other results |
| --- | --- | --- | --- | --- |
| O=C(O)[C@@H]1C[C@H]2C[C@@H](CCc3nn[nH]n3)CC[C@H]2CN1 [TEZAMPANEL ANHYDROUS] |  | 133% |  |  |
| COc1ccc(-c2nnn[nH]2)c(O[C@H]2CC[C@H]3CN[C@H](C(=O)O)C[C@H]3C2)c1 | 1400 nM |  | 2000 nM |  |
| O=C(O)[C@@H]1C[C@H]2C[C@@H](Oc3cc(-c4ccc(Cl)cc4)ccc3-c3nnn[nH]3)CC[C@H]2CN1 | 20 nM |  | 3 nM |  |
| O=C(O)[C@@H]1C[C@H]2C[C@@H](Oc3cc(-c4cccc(Cl)c4)ccc3-c3nnn[nH]3)CC[C@H]2CN1 | 700 nM |  | 1700 nM |  |
| Cc1cccc(N[C@H]2CC[C@H]3CN[C@H](C(=O)O)C[C@H]3C2)c1-c1nnn[nH]1 | 3200 nM |  | 128000 nM |  |
| O=C(O)[C@@H]1C[C@H]2C[C@@H](Oc3cc(CCc4ccccc4)ccc3-c3nnn[nH]3)CC[C@H]2CN1 | 1700 nM |  | 9600 nM |  |
| Cl.O=C(O)[C@@H]1C[C@H]2C[C@@H](Oc3cccc(Cl)c3-c3nnn[nH]3)CC[C@H]2CN1 | 200 nM | 80.2% | 30000 nM | minimal effective dose (Rattus norvegicus [3]): 1 mg/kg; concentration at 1 h [4]: 1020 ng/mL; Activity (Rattus norvegicus [5]): Toxic; Activity (Rattus norvegicus [6]): Toxic; bioavailability [7]: 42%; minimal effective dose (Rattus norvegicus [8]): 3 mg/kg |
| COc1cccc(O[C@H]2CC[C@H]3CN[C@H](C(=O)O)C[C@H]3C2)c1-c1nnn[nH]1 | 1100 nM |  | 252000 nM |  |
| O=C(O)[C@@H]1C[C@H]2C[C@@H](Nc3ccccc3-c3nn[nH]n3)CC[C@H]2CN1 | 800 nM | 124.8% | 6000 nM |  |
| O=C(O)[C@@H]1C[C@H]2C[C@@H](Oc3cc(-c4ccccc4Cl)ccc3-c3nnn[nH]3)CC[C@H]2CN1 | 1000 nM |  | 13000 nM |  |
| O=C(O)[C@@H]1C[C@H]2C[C@@H](Oc3cc(-c4nccs4)ccc3-c3nnn[nH]3)CC[C@H]2CN1 | 900 nM |  | 2200 nM |  |
| O=C(O)[C@@H]1C[C@H]2C[C@@H](Oc3cc(-c4cccnc4)ccc3-c3nnn[nH]3)CC[C@H]2CN1 | 10000 nM |  | 20000 nM |  |
| O=C(O)[C@@H]1C[C@H]2C[C@@H](Oc3cc(Oc4ccccc4)ccc3-c3nnn[nH]3)CC[C@H]2CN1 | 17000 nM |  | 335000 nM |  |
| Cl.O=C(O)[C@@H]1C[C@H]2C[C@@H](Sc3ccccc3-c3nnn[nH]3)CC[C@H]2CN1 | 600 nM | 52.6% | 22000 nM |  |
| O=C(O)[C@@H]1C[C@H]2C[C@@H](Oc3c(F)cccc3-c3nnn[nH]3)CC[C@H]2CN1 | 422000 nM |  | 450000 nM |  |
